{"source": "patent US20240024291A1", "about": "“Uses of Dihydroorotate Dehydrogenase Inhibitors” (University of Maryland, Baltimore, priority 2022, published 2024)", "experiment_in_all_cases": "CellTiter-Glo in vitro proliferation assay", "format_in_all_cases": "cell-based", "key": {"[1]": {"system": "Mayo39 glioblastoma neurosphere line", "conditions": "Homo sapiens", "description": "(§1) A Biospherix X3, hypoxic incubation system, was maintained at 37° C., 1% 02, 5% CO2, and 94% N2 (Biospherix, Ltd—Parish, NY) to conduct in vitro hypoxic experiments. Cells were plated, then incubated in normoxia overnight before transferring the culture dishes to hypoxia for the duration indicated in the main text.\n(§2) Glioblastoma neurosphere lines were plated in 96-well plates at 25,000 cells per well in […] of media and treated with compound 1 in the presence or absence of 100 μM uridine. Cell Titer-Glo® Luminescent Cell Viability Assay (Promega, Madison, WI, USA) was performed 72 hours after treatment. Luminescence was determined using a Cytation 5 reader and Gen5 software package (BioTek, Winooski, VT, USA).\n(§3) The compound's efficacy was examined against a collection of genetically diverse patient-derived GSC lines in vitro. The IC50 profiles of compound 1 in the seven GSC lines tested were established using the CellTiter-Glo® reagent and calculated with GraphPad software."}, "[2]": {"system": "Mayo15 glioblastoma neurosphere line", "conditions": "Homo sapiens", "description": "as §1, §2, §3"}, "[3]": {"system": "Mayo6 glioblastoma neurosphere line", "conditions": "Homo sapiens", "description": "as §1, §2, §3"}, "[4]": {"system": "3691 glioblastoma neurosphere line", "conditions": "Homo sapiens, 72 h, 3691 (table prints 3639)", "description": "as §1, §2, §3"}, "[5]": {"system": "1079 glioblastoma neurosphere line", "conditions": "Homo sapiens", "description": "as §1, §2, §3"}}}
{"smiles": "CCn1c(CO)nn(-c2cc(O[C@@H](C)C(F)(F)F)c(C(=O)Nc3c(F)cccc3Cl)cc2F)c1=O", "note": "[Compound 1, N-(2-chloro-6-fluorophenyl)-4-[4-ethyl-4,5-dihydro-3-(hydroxymethyl)-5-oxo-1H-1,2,4-triazol-1-yl]-5-fluoro-2-[(1S)-2,2,2-trifluoro-1-methylethoxy]-benzamide]", "values": [{"measurement": "IC50", "setting": "[1]; 72 h, Mayo39, hypoxia", "value": 153, "unit": "µM"}, {"measurement": "IC50", "setting": "[1]; 72 h, Mayo39, normoxia", "value": 182, "unit": "µM"}, {"measurement": "IC50", "setting": "[1]; Mayo39", "value": 182, "unit": "µM"}, {"measurement": "IC50", "setting": "[2]; 72 h, Mayo15, hypoxia", "value": 146, "unit": "µM"}, {"measurement": "IC50", "setting": "[2]; 72 h, Mayo15, normoxia", "value": 64, "unit": "µM"}, {"measurement": "IC50", "setting": "[2]; Mayo15", "value": 64, "unit": "µM"}, {"measurement": "IC50", "setting": "[3]; 72 h, Mayo6, hypoxia", "value": 228, "unit": "µM"}, {"measurement": "IC50", "setting": "[3]; 72 h, Mayo6, normoxia", "value": 164, "unit": "µM"}, {"measurement": "IC50", "setting": "[3]; Mayo6", "value": 164, "unit": "µM"}, {"measurement": "IC50", "setting": "[4]; hypoxia", "value": 0.0122, "unit": "µM"}, {"measurement": "IC50", "setting": "[4]; normoxia", "value": 0.0074, "unit": "µM"}, {"measurement": "IC50", "setting": "[5]; 1079", "value": 1.2, "unit": "µM"}, {"measurement": "IC50", "setting": "[5]; 72 h, 1079, hypoxia, 72 hours", "value": 23.7, "unit": "µM"}, {"measurement": "IC50", "setting": "[5]; 72 h, 1079, normoxia, 72 hours", "value": 1.2, "unit": "µM"}]}
